Laboratory results as given in patent US11547761B1, “Antibody adjuvant conjugates” (The Board of Trustees of the Leland Stanford Junior …, priority 2016, dated 2023).
Entries after “also recorded” stand apart in the source; their conditions may differ.

Key:
Type in all cases: cell-based
[1] = system: human antigen presenting cells; assay: Stimulation of human antigen presenting cells with free adjuvants, flow cytometry; details: peripheral blood APCs, 10-fold serial dilutions, 18 hours, 37° C.
Experimental: Peripheral blood antigen presenting cells (APCs) were stimulated with 10-fold serial dilutions of R848, Compound 2 or a control TLR agonist at 37° C. After 18 hours, cells were analyzed via flow cytometry. Data are presented as median fluorescence intensity of each indicated marker; n=3.
To determine if adjuvant functionalization impacted the capacity of Compound 2 or Compound 1 to elicit immune activation, human antigen presenting cells were stimulated with 10-fold serial dilutions of R848, Compound 2, Compound 1 or a control TLR agonist, CL307, for 18 hours prior to analysis via flow cytometry.

human TLR7 = target: T1, human TLR7 (Homo sapiens, UniProt Q9NYK1); assay: HEK293 TLR reporter (secreted embryonic alkaline phosphatase) assay; details: 2-fold serial dilutions, 12 hours at 37° C.
T1 construct: expressed in transfected cells; host or cells: HEK293
T1 sequence (Q9NYK1 27-1049): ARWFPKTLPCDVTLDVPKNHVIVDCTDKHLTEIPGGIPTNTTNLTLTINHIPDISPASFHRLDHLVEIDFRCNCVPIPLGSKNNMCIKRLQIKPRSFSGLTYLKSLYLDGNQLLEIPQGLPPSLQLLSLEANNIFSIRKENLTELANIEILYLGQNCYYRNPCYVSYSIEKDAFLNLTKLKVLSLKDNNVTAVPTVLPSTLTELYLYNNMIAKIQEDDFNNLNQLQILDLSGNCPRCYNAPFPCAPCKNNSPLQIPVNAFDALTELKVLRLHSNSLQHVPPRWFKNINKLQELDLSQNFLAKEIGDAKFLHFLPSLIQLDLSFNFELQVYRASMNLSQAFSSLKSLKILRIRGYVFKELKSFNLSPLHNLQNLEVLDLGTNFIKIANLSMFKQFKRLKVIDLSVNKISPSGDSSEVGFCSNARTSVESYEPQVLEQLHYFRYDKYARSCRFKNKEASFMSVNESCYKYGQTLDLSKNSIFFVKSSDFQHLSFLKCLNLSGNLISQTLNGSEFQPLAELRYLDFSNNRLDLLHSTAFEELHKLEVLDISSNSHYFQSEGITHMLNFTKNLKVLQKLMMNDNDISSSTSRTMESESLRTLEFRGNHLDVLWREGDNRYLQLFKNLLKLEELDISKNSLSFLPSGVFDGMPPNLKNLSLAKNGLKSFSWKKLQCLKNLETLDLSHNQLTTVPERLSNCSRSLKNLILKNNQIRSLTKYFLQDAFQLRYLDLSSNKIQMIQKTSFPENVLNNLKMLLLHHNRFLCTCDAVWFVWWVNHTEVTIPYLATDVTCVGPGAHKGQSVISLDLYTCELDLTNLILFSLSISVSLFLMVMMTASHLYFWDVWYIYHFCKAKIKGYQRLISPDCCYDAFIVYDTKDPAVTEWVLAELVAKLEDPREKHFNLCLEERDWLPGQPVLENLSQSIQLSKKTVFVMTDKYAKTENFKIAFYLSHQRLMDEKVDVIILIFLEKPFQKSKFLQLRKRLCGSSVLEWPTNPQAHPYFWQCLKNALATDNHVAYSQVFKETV
Experimental: (§1) HEK293 cells were co-transfected with human TLR7 or TLR8 (top two panels) or murine TLR7 (bottom panel) and an inducible secreted embryonic alkaline phosphatase reporter gene under the control of the IFN-β minimal promoter fused to NF-κB and AP-1 binding sites. Cells were subsequently incubated with 2-fold serial dilutions of the indicated adjuvant for 12 hours at 37° C. Activity was measured by spectrophotometry (OD 650 nm) following addition of alkaline phosphatase substrate.
(§2) Next, the capacity of each functionalized TLR agonist to activate human TLR7 or TLR8 was directly assayed. HEK293 cells were co-transfected with human TLR7 or TLR8 or murine TLR7 and an inducible secreted embryonic alkaline phosphatase reporter gene under the control of the IFN-β minimal promoter fused to NF-κB and AP-1 binding sites. Cells were subsequently incubated with 2-fold serial dilutions of each the indicated adjuvants for 12 hours at 37 C in the presence of an alkaline phosphatase substrate. Activity was measured by spectrophotometry (OD 650 nm).

human TLR8 = target: T2, human TLR8 (Homo sapiens, UniProt Q9NR97); assay: as above; details: 2-fold serial dilutions, 12 hours at 37° C.
T2 construct: expressed in transfected cells; host or cells: HEK293
T2 sequence (Q9NR97 27-1041): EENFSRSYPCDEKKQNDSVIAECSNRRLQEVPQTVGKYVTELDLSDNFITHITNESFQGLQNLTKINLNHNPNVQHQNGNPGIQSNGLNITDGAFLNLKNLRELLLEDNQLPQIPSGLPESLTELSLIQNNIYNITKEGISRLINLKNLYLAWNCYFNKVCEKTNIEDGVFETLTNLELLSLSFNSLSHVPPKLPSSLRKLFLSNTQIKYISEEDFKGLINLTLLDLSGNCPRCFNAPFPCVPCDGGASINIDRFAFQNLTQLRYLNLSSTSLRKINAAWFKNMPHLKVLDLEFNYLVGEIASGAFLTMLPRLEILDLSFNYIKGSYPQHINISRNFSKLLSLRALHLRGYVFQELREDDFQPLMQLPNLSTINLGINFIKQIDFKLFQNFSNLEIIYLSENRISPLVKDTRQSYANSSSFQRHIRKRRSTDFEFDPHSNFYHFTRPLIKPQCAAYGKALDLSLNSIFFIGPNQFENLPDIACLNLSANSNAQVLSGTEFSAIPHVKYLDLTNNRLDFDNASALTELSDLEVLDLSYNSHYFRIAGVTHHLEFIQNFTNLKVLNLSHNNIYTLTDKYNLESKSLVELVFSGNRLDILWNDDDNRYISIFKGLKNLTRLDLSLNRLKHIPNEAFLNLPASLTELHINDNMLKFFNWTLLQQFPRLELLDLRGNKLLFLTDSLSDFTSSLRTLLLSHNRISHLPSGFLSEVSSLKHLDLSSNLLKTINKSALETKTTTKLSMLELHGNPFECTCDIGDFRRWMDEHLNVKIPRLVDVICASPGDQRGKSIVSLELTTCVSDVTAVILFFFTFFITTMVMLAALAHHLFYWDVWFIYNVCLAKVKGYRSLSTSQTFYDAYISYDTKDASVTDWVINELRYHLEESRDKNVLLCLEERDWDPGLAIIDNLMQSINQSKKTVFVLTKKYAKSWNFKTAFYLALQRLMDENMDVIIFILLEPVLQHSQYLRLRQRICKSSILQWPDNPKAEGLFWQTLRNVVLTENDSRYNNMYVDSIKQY
Experimental: as §1, §2

murine TLR7 = target: T3, murine TLR7 (Mus musculus, UniProt P58681); assay: as above; details: 2-fold serial dilutions, 12 hours at 37° C.
T3 construct: expressed in transfected cells; host or cells: HEK293
T3 sequence (P58681 27-1050): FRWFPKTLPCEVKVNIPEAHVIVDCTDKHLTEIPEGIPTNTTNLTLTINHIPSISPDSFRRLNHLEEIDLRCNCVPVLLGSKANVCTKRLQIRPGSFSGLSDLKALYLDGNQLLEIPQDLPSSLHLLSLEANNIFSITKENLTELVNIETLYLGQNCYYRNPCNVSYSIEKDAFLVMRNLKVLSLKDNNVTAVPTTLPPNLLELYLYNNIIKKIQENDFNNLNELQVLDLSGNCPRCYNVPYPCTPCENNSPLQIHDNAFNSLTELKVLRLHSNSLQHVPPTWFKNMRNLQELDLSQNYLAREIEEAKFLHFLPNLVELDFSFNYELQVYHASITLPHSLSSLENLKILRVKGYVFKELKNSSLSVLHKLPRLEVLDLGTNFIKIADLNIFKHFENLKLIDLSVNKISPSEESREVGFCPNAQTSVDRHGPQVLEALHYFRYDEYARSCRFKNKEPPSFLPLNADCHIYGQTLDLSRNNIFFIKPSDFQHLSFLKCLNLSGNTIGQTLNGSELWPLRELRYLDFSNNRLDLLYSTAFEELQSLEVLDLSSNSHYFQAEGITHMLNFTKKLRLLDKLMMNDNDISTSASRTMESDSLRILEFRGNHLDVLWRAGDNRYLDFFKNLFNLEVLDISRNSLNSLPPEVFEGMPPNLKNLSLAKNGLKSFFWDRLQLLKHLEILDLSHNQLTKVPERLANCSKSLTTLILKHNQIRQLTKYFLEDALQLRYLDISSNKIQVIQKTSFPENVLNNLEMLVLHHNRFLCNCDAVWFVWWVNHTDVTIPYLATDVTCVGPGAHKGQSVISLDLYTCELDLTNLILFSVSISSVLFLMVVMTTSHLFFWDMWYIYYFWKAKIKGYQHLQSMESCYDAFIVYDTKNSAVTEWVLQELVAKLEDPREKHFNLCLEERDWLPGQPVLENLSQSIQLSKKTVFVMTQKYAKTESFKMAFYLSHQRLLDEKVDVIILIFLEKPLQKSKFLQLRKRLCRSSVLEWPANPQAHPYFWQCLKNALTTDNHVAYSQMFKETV
Experimental: as §1, §2

[2] = system: human APCs (myeloid cells); assay: APC-tumor co-culture / myeloid cell stimulation, surface markers by flow cytometry; details: 18 hours of stimulation; compared with the corresponding unconjugated antibody unless the value names another comparator
From the text: (§3) Human antigen presenting cells (APCs) were negatively selected from human peripheral blood mononuclear cells obtained from healthy blood donors (Stanford Blood Center) by density gradient centrifugation using a RosetteSep Human Monocyte Enrichment Cocktail (Stem Cell Technologies) containing monoclonal antibodies against CD2, CD3, CD8, CD19, CD56, CD66b and CD235a. Immature APCs were subsequently purified to >97% purity via negative selection using an EasySep Human Monocyte Enrichment Kit without CD16 depletion containing monoclonal antibodies against CD2, CD3, CD19, CD20, CD56, CD66b, CD123 and CD235a.
Tumor cells were resuspended in PBS with 0.1% fetal bovine serum (FBS) at 1 to 10×10^6 cells/mL. Cells were subsequently incubated with 2 μM CFSE to yield a final concentration of 1 μM. The reaction was ended after 2 minutes via the addition of 10 mL complete medium with 10% FBS and washed once with complete medium. Cells were either fixed in 2% paraformaldehyde and washed three times with PBS or left unfixed prior to freezing the cells in 10% DMSO, 20% FBS and 70% medium.
(§4) 2×10^5 APCs were incubated with or without 6.5×10^5 autologous or allogeneic CFSE-labeled tumor cells in 96-well plates (Corning) containing IMDM medium (Gibco) supplemented with 10% fetal bovine serum, 100 U/mL penicillin, 100 μg/mL streptomycin, 2 mM L-glutamine, sodium pyruvate, non-essential amino acids, 50 μM 2-ME and, where indicated, various concentrations of anti-tumor antibody and the indicated adjuvants. Cells and cell-free supernatants were analyzed after 18 hours via flow cytometry.
as §3, with “[…]” for “CD2, CD3, CD8, CD19, CD56, CD66b”, “[…].” for “CD235a.”, “CD14, CD16, CD40, CD86, CD123,” for “CD2, CD3, CD19, CD20, CD56, CD66b, CD123”
as §4, with “antibody.” for “anti-tumor antibody and the indicated adjuvants.”
(§5) 2×10^5 APCs were incubated with or without 6.5×10^5 allogeneic CFSE-labeled tumor cells in 96-well plates (Corning) containing IMDM medium (Gibco) supplemented with 10% fetal bovine serum, 100 U/mL penicillin, 100 μg/mL streptomycin, 2 mM L-glutamine, sodium pyruvate, non-essential amino acids and, where indicated, various concentrations of unconjugated CD20 antibody, and immunoconjugates of the invention were prepared according to the examples above. Cells and cell-free supernatants were analyzed after 18 hours via flow cytometry or ELISA.

[3] = system: human APCs (myeloid cells); assay: Cytokine secretion from human APCs / myeloid cells (cell free supernatants); details: 36 hours of stimulation; compared to equimolar unconjugated antibody
Experimental: After 18 hours, cell free supernatants were analyzed for cytokine secretion via cytokine bead arrays; n=3. P-values≤0.05 depicted by *, P-values≤0.01 depicted by **, P-values≤0.001 depicted by ***, P-values≤0.0001 depicted by ****.
as §4, with “Cells and cell-free supernatants were analyzed after 18 hours via flow cytometry.” left out
While the expression of T cell stimulatory molecules such as CD40, CD86 and HLA-DR is necessary for effective T cell activation, APCs also influence the nature of the ensuing immune response through the secretion of cytokines. Therefore, the capacity of immunoconjugates to elicit cytokine secretion in human APCs following stimulation was investigated as described above.
The capacity of these immunoconjugates to elicit cytokine secretion in human APCs following stimulation was investigated as described in Example 3 above.
as §5, with “Cells and cell-free supernatants were analyzed after 18 hours via flow cytometry or ELISA.” left out

Row | Molecule | myeloid cell activation (median fluorescence intensity of activation markers) [1] | human TLR7 activation (OD 650 nm) (human TLR7) | human TLR8 activation (OD 650 nm) (human TLR8) | murine TLR7 activation (OD 650 nm) (murine TLR7) | CD16 downregulation on myeloid cells [2] | CD40 upregulation on myeloid cells [2] | CD86 upregulation on myeloid cells [2] | CD123 upregulation on myeloid cells [2] | IL-1β secretion from myeloid cells [3] | TNFα secretion from myeloid cells [3]
1 | CCCCc1nc2c(N)nc3ccccc3c2n1CCCCN1C(=O)C=CC1=O [Compound 2] | performed similarly to R848; also recorded: potent inducer of myeloid cell activation | specific for TLR7 activity | specific for TLR7 activity | activated murine TLR7 | – | – | – | – | – | –
2 | Rituximab-Pam3CSK4 Boltbody | – | – | – | – | superior | superior | superior | superior | superior | superior
3 | Rituximab-Pam2CSK4 Boltbody | – | – | – | – | superior | superior | superior | – | superior | superior
